From paper PMC6930494, “Immobilization of Naringinase from Penicillium decumbens on Chitosan Microspheres for Debittering Grapefruit Juice” (Molecules, 2019)

Test system: T1, naringinase
T1 construct: gene naringinase alpha-L-rhamnosidase activity
Assay: initial rates of naringin hydrolysis, Davis or DNS method, Lineweaver-Burk
Assay type: biochemical, Penicillium decumbens
Details: free enzyme; 0.1 M acetate buffer pH 4.0, 50 °C; naringin 0.5-20 mM; commercial enzyme complex
Text: initial rates of naringin hydrolysis, Davis or DNS method, Lineweaver-Burk on naringinase

C[C@@H]1O[C@@H](O[C@H]2[C@H](Oc3cc(O)c4c(c3)O[C@H](c3ccc(O)cc3)CC4=O)O[C@H](CO)[C@@H](O)[C@@H]2O)[C@H](O)[C@H](O)[C@H]1O [naringin]
Km: 2560 µM
